Measured values as given in patent US12404285B2, “KRAS G12D proteolysis targeting chimeras” (PAQ Therapeutics Inc., priority 2022, dated 2025).

What follows are compounds tested against T1, KRAS (G12D)-HiBit in AsPc-1-KRAS (G12D)-HiBit-KI cell (Homo sapiens, UniProt P01116, G12D) (assay: G12D HiBit assay). Conditions: 24 hours compound treatment, absolute DC50, read-out: Average PHA DC50.
T1 construct: host or cells: AsPc-1-KRAS (G12D)-HiBit-KI cells (knock-in line)
Type: cell-based
How it was run: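 Degradation of endogenous HiBiT-tagged KRAS G12D in AsPc-1 knock-in cells read after 24 h compound exposure (0.015-300 nM, 3-fold steps) by Nano-Glo HiBiT lytic luminescence. Signal normalised to DMSO-only cells; absolute DC50 derived by curve fitting.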

T1 sequence (P01116 1-188 isoform P01116-2 G12D): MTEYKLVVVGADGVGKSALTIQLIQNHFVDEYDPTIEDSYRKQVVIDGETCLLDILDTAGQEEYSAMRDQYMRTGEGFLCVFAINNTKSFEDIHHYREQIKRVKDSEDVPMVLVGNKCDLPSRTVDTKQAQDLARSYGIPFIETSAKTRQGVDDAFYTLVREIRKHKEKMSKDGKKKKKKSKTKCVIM

DC50	SMILES
≥ 300 nM	C#Cc1c(F)ccc2cccc(-c3ncc4c(N5CC6CCC(C5)N6)nc(OC[C@@]56CCCN5[C@H](COC(=O)N5CCC(CCC7CCN(Cc8cccc9c8n(C)c(=O)n9C8CCC(=O)NC8=O)CC7)CC5)CC6)nc4c3F)c12 (some centres unmarked) [Compound 49]
100 to 300 nM	C#Cc1c(F)ccc2cccc(-c3ncc4c(N5CC6CCC(C5)N6)nc(OC[C@@]56CCCN5[C@H](COC(=O)N5CC(CN7CCN(c8cccc9c8n(C)c(=O)n9C8CCC(=O)NC8=O)CC7)C5)CC6)nc4c3F)c12 (stereo partly drawn) [Compound 113, [(3S,8S)-8-[[4-(3,8-Diazabicyclo[3.2.1]octan-3-yl)-7-(8-ethynyl-7-fluoro-1-naphthyl)-8-fluoro-pyrido[4,3-d]pyrimidin-2-yl]oxymethyl]-1,2,3,5,6,7-hexahydropyrrolizin-3-yl]methyl 3-[[4-[1-(2,6-dioxo-3-piperidyl)-3-methyl-2-oxo-benzimidazol-4-yl]piperazin-1-yl]methyl]azetidine-1-carboxylate]
< 100 nM	C#Cc1c(F)ccc2cccc(-c3ncc4c(N5CC6CCC(C5)N6)nc(OC[C@@]56CCCN5[C@H](COC(=O)N5CCC(OC7CCN(c8ccc9c(c8)n(C)c(=O)n9C8CCC(=O)NC8=O)CC7)CC5)CC6)nc4c3F)c12 (stereo partly drawn) [Compound 98, [(3S,8S)-8-[[4-(3,8-Diazabicyclo[3.2.1]octan-3-yl)-7-(8-ethynyl-7-fluoro-1-naphthyl)-8-fluoro-pyrido[4,3-d]pyrimidin-2-yl]oxymethyl]-1,2,3,5,6,7-hexahydropyrrolizin-3-yl]methyl 4-[[1-[1-(2,6-dioxo-3-piperidyl)-3-methyl-2-oxo-benzimidazol-5-yl]-4-piperidyl]oxy]piperidine-1-carboxylate]
< 100 nM	C#Cc1c(F)ccc2cccc(-c3ncc4c(N5CC6CCC(C5)N6)nc(OC[C@@]56CCCN5[C@H](COC(=O)N5CCC(OCC7CCN(Cc8cccc9c8n(C)c(=O)n9C8CCC(=O)NC8=O)CC7)CC5)CC6)nc4c3F)c12 (stereo partly drawn) [Compound 62, [(3S,8S)-8-[[4-(3,8-Diazabicyclo[3.2.1]octan-3-yl)-7-(8-ethynyl-7-fluoro-1-naphthyl) 8-fluoro-pyrido[4,3-d]pyrimidin-2-yl]oxymethyl]-1,2,3,5,6,7-hexahydropyrrolizin-3-yl]methyl4-[[1-[[1-(2,6-dioxo-3-piperidyl)-3-methyl-2-oxo-benzimidazol-4-yl]methyl]-4-piperidyl]methoxy]piperidine-1-carboxylate]
≥ 300 nM	C#Cc1c(F)ccc2cccc(-c3ncc4c(N5CC6CCC(C5)N6)nc(OC[C@@]56CCCN5[C@H](COC(=O)N5CCC(OCCc7ccc8c(c7)n(C)c(=O)n8C7CCC(=O)NC7=O)CC5)CC6)nc4c3F)c12 (stereo partly drawn) [Compound 133, [(3S,8S)-8-[[4-(3,8-Diazabicyclo[3.2.1]octan-3-yl)-7-(8-ethynyl-7-fluoro-1-naphthyl)-8-fluoro-pyrido[4,3-d]pyrimidin-2-yl]oxymethyl]-1,2,3,5,6,7-hexahydropyrrolizin-3-yl]methyl 4-[2-[1-(2,6-dioxo-3-piperidyl)-3-methyl-2-oxo-benzimidazol-5-yl]ethoxy]piperidine-1-carboxylate]
< 100 nM	C#Cc1c(F)ccc2cccc(-c3ncc4c(N5CC6CCC(C5)N6)nc(OC[C@@]56CCCN5[C@H](COC(=O)N5CC(OC7CCN(Cc8ccc9c(c8)n(C)c(=O)n9C8CCC(=O)NC8=O)CC7)C5)CC6)nc4c3F)c12 (stereo partly drawn) [Compound 89, [(3S,8S)-8-[[4-(3,8-Diazabicyclo[3.2.1]octan-3-yl)-7-(8-ethynyl-7-fluoro-1-naphthyl)-8-fluoro-pyrido[4,3-d]pyrimidin-2-yl]oxymethyl]-1,2,3,5,6,7-hexahydropyrrolizin-3-yl]methyl 3-[[1-[[1-(2,6-dioxo-3-piperidyl)-3-methyl-2-oxo-benzimidazol-5-yl]methyl]-4-piperidyl]oxy]azetidine-1-carboxylate]
< 100 nM	C#Cc1c(F)ccc2cccc(-c3ncc4c(N5CC6CCC(C5)N6)nc(OC[C@@]56CCCN5[C@H](COC(=O)N5CCC(OCCCc7ccc8c(c7)n(C)c(=O)n8C7CCC(=O)NC7=O)CC5)CC6)nc4c3F)c12 (stereo partly drawn) [Compound 136, [(3S,8S)-8-[[4-(3,8-Diazabicyclo[3.2.1]octan-3-yl)-7-(8-ethynyl-7-fluoro-1-naphthyl)-8-fluoro-pyrido[4,3-d]pyrimidin-2-yl]oxymethyl]-1,2,3,5,6,7-hexahydropyrrolizin-3-yl]methyl 4-[3-[1-(2,6-dioxo-3-piperidyl)-3-methyl-2-oxo-benzimidazol-5-yl]propoxy]piperidine-1-carboxylate]
< 100 nM	C#Cc1c(F)ccc2cccc(-c3ncc4c(N5CC6CCC(C5)N6)nc(OC[C@@]56CCCN5[C@H](COC(=O)N5CCC(OCC#CC#Cc7cccc8c7n(C)c(=O)n8C7CCC(=O)NC7=O)CC5)CC6)nc4c3F)c12 (stereo partly drawn) [Compound 93, [(3S,8S)-8-[[4-(3,8-Diazabicyclo[3.2.1]octan-3-yl)-7-(8-ethynyl-7-fluoro-1-naphthyl)-8-fluoro-pyrido[4,3-d]pyrimidin-2-yl]oxymethyl]-1,2,3,5,6,7-hexahydropyrrolizin-3-yl]methyl4-[5-[1-(2,6-dioxo-3-piperidyl)-3-methyl-2-oxo-benzimidazol-4-yl]penta-2,4-diynoxy]piperidine-1-carboxylate]
≥ 300 nM	C#Cc1c(F)ccc2cccc(-c3ncc4c(N5CC6CCC(C5)N6)nc(OC[C@@]56CCCN5[C@H](COC(=O)N5CCC(CCCCc7cccc8c7n(C)c(=O)n8C7CCC(=O)NC7=O)CC5)CC6)nc4c3F)c12 (some centres unmarked) [Compound 41]
< 100 nM	C#Cc1c(F)ccc2cccc(-c3ncc4c(N5CC6CCC(C5)N6)nc(OC[C@@]56CCCN5[C@H](COC(=O)N5CCN(CCC7CCN(Cc8cccc9c8n(C)c(=O)n9C8CCC(=O)NC8=O)CC7)CC5)CC6)nc4c3F)c12 (stereo partly drawn) [Compound 85, [(3S,8S)-8-[[4-(3,8-Diazabicyclo[3.2.1]octan-3-yl)-7-(8-ethynyl-7-fluoro-1-naphthyl)-8-fluoro-pyrido[4,3-d]pyrimidin-2-yl]oxymethyl]-1,2,3,5,6,7-hexahydropyrrolizin-3-yl]methyl4-[2-[1-[[1-(2,6-dioxo-3-piperidyl)-3-methyl-2-oxo-benzimidazol-4-yl]methyl]-4-piperidyl]ethyl]piperazine-1-carboxylate]
≥ 300 nM	C#Cc1c(F)ccc2cccc(-c3ncc4c(N5CC6CCC(C5)N6)nc(OC[C@@]56CCCN5[C@H](COC(=O)NCCCCCC(=O)N5CCN(c7ccc(N8CCC(=O)NC8=O)cc7)CC5)CC6)nc4c3F)c12 [Compound 148, ((3S,7aS)-7a-(((4-(3,8-Diazabicyclo[3.2.1]octan-3-yl)-7-(8-ethynyl-7-fluoronaphthalen-1-yl)-8-fluoropyrido[4,3-d]pyrimidin-2-yl)oxy)methyl)hexahydro-1H-pyrrolizin-3-yl)methyl(6-(4-(4-(2,4-dioxotetrahydropyrimidin-1(2H)-yl)phenyl)piperazin-1-yl)-6-oxohexyl)carbamate]
< 100 nM	C#Cc1c(F)ccc2cccc(-c3ncc4c(N5CC6CCC(C5)N6)nc(OC[C@@]56CCCN5[C@H](COC(=O)N5CCC(OCCC#Cc7ccc8c(c7)n(C)c(=O)n8C7CCC(=O)NC7=O)CC5)CC6)nc4c3F)c12 (some centres unmarked) [Compound 50]
≥ 300 nM	C#Cc1c(F)ccc2cccc(-c3ncc4c(N5CC6CCC(C5)N6)nc(OC[C@@]56CCCN5[C@H](COC(=O)NCCCCC(=O)N5CCN(c7ccc(N8CCC(=O)NC8=O)cc7)CC5)CC6)nc4c3F)c12 [Compound 147, [(3S,8S)-8-[[4-(3,8-Diazabicyclo[3.2.1]octan-3-yl)-7-(8-ethynyl-7-fluoro-1-naphthyl)-8-fluoro-pyrido[4,3-d]pyrimidin-2-yl]oxymethyl]-1,2,3,5,6,7-hexahydropyrrolizin-3-yl]methyl N-[5-[4-[4-(2,4-dioxohexahydropyrimidin-1-yl)phenyl]piperazin-1-yl]-5-oxo-pentyl]carbamate]
≥ 300 nM	C#Cc1c(F)ccc2cccc(-c3ncc4c(N5CC6CCC(C5)N6)nc(OC[C@@]56CCCN5[C@H](COC(=O)N5CCC(Cn7cc(-c8ccc9c(c8)n(C)c(=O)n9C8CCC(=O)NC8=O)nn7)CC5)CC6)nc4c3F)c12 (stereo partly drawn) [Compound 94, [(3S,8S)-8-[[4-(3,8-Diazabicyclo[3.2.1]octan-3-yl)-7-(8-ethynyl-7-fluoro-1-naphthyl)-8-fluoro-pyrido[4,3-d]pyrimidin-2-yl]oxymethyl]-1,2,3,5,6,7-hexahydropyrrolizin-3-yl]methyl 4-[[4-[1-(2,6-dioxo-3-piperidyl)-3-methyl-2-oxo-benzimidazol-5-yl]triazol-1-yl]methyl]piperidine-1-carboxylate]
< 100 nM	C#Cc1c(F)ccc2cc(O)cc(-c3ncc4c(N5CCCC6(CCO6)C5)nc(OC[C@@]56CCCN5[C@H](COC(=O)N5CCC(OCCCc7cccc8c7n(C)c(=O)n8C7CCC(=O)NC7=O)CC5)CC6)nc4c3F)c12 (some centres unmarked) [Compound 35]
< 100 nM	C#Cc1c(F)ccc2cccc(-c3ncc4c(N5CC6CCC(C5)N6)nc(OC[C@@]56CCCN5[C@H](COC(=O)N5CCC(OCC#CC#Cc7ccc8c(c7)n(C)c(=O)n8C7CCC(=O)NC7=O)CC5)CC6)nc4c3F)c12 (stereo partly drawn) [Compound 92, [(3S,8S)-8-[[4-(3,8-Diazabicyclo[3.2.1]octan-3-yl)-7-(8-ethynyl-7-fluoro-1-naphthyl)-8-fluoro-pyrido[4,3-d]pyrimidin-2-yl]oxymethyl]-1,2,3,5,6,7-hexahydropyrrolizin-3-yl]methyl 4-[5-[1-(2,6-dioxo-3-piperidyl)-3-methyl-2-oxo-benzimidazol-5-yl]penta-2,4-diynoxy]piperidine-1-carboxylate]

SMILES	DC50
C#Cc1c(F)ccc2cccc(-c3ncc4c(N5CC6CCC(C5)N6)nc(OC[C@@]56CCCN5[C@H](COC(=O)N5CCC(OCCCCc7cccc8c7n(C)c(=O)n8C7CCC(=O)NC7=O)CC5)CC6)nc4c3F)c12 (stereo partly drawn) [Compound 117, [(3S,8S)-8-[[4-(3,8-Diazabicyclo[3.2.1]octan-3-yl)-7-(8-ethynyl-7-fluoro-1-naphthyl)-8-fluoro-pyrido[4,3-d]pyrimidin-2-yl]oxymethyl]-1,2,3,5,6,7-hexahydropyrrolizin-3-yl]methyl4-[4-[1-(2,6-dioxo-3-piperidyl)-3-methyl-2-oxo-benzimidazol-4-yl]butoxy]piperidine-1-carboxylate]	< 100 nM
